Laboratory results taken from patent publication US9376470B2, “Polypeptide having angiogenesis-inducing activity and antibacterial activity, and use thereof for medical purposes” (FunPep Inc., priority 2008, dated 2016).

Key:
Assay in all cases: Antibacterial activity, ATP assay (BacTiter-Glo)
Assay type in all cases: cell-based
[1] = tested on: Enterobacteria (2): Enterobacter aerogenes JCM 1235; conditions: ATP assay concentration: peptides 10, TOB 4.0, CPFX 1.0, OX 4.0, MEPM 8.0 μg/ml
Protocol: (§1) That is, using BacTiter-Glo Microbial Cell Viability Assay kit available from PROMEGA, the antibacterial activity of the peptides was evaluated from the viability of bacteria. […] With respect to the strains, Staphylococcus aureus ATCC29213 (S. aureus ATCC29213) as Gram-positive bacteria, or, alternatively, Pseudomonas aeruginosa (P. aeruginosa ATCC27853) as Gram-negative bacteria, was used. The bacteria were cultured in media for 3 to 4 hours, and thereafter absorbances at A600 were measured. Bacterial suspensions were diluted with Mueller-Hinton broth (MHB) according to McFarland #0.5. Each strain was added so as to attain about 0.5−1×10^5 CFU/mL (final concentration) in terms of Escherichia coli. […] A solution to which the peptides were not added was considered as a negative control, and a solution to which tobramycin (TOB) was added was considered as a positive control. […] Relative values were calculated by comparison with the negative control, and these values were regarded as the viability. […] ATP (%) of the antibacterial activity was measured in the same manner as mentioned above, and the “minimum inhibitory concentration (MIC)” was measured as follows. MIC is the lowest concentration of an agent that may inhibit the growth of a bacterium. MIC is used as a parameter for the efficacy of an antibacterial agent, for the strength of bacterial sensitivity, or the like. The bacteria can grow (proliferate) when the concentration is not higher than MIC, and cannot grow when the concentration is higher than MIC. Its measurement is carried out according to a method defined as a standard method by Japanese Society of Chemotherapy or CLINICAL AND LABORATORY […] (CLSI), but, in this Example, its measurement was carried out by a broth microdilution method in accordance with “M100-S17/M7-A7” (Performance Standards for Antimicrobial Susceptibility Testing; Seventeenth Informational Supplement, Vol. 27 No. 1) published by CLSI on January, 2007. That is, sensitivity test of agents was carried out using a microtiter plate or test tubes. With respect to each strain, Escherichia coli: ATCC 25922 (Escherichia coli ATCC 25922), Pseudomonas aeruginosa: ATCC 27853 (Pseudomonas aeruginosa ATCC 27853), Staphylococcus aureus: ATCC29213 (Staphylococcus aureus ATCC29213), Klebsiella pneumoniae: JCM 1662 (Klebsiella pneumoniae JCM 1662), enterobacteria (1): JCM 1232 (Enterobacter cloacae JCM 1232), enterobacteria (2): JCM 1235 (Enterobacter aerogenes JCM 1235), and Staphylococcus epidermidis: JCM 2414 (Staphylococcus epidermidis JCM 2414), were used. […] As the concentrations of the agents in ATP assay, the concentrations as described in the Tables were used.

[2] = tested on: Escherichia coli ATCC 25922; conditions: ATP assay concentration: peptides 10, TOB 1.0, CPFX 0.015, OX 0.5, MEPM 0.1 μg/ml
Protocol: as §1

[3] = tested on: Klebsiella pneumoniae JCM 1662; conditions: ATP assay concentration: peptides 10, TOB 4.0, CPFX 1.0, OX 0.5, MEPM 8.0 μg/ml
Protocol: as §1

[4] = tested on: Staphylococcus epidermidis JCM 2414; conditions: ATP assay concentration: peptides 10, TOB 1.0, CPFX 0.5, OX 0.5, MEPM 0.125 μg/ml
Protocol: as §1

[5] = tested on: Enterobacteria (1): Enterobacter cloacae JCM 1232; conditions: ATP assay concentration: peptides 10, TOB 4.0, CPFX 1.0, OX 4.0, MEPM 8.0 μg/ml
Protocol: That is, using BacTiter-Glo Microbial Cell Viability Assay kit available from PROMEGA, the antibacterial activity of the peptides was evaluated from the viability of bacteria. […] With respect to the strains, Staphylococcus aureus ATCC29213 (S. aureus ATCC29213) as Gram-positive bacteria, or, alternatively, Pseudomonas aeruginosa (P. aeruginosa ATCC27853) as Gram-negative bacteria, was used. The bacteria were cultured in media for 3 to 4 hours, and thereafter absorbances at A600 were measured. Bacterial suspensions were diluted with Mueller-Hinton broth (MHB) according to McFarland #0.5. Each strain was added so as to attain about 0.5−1×10^5 CFU/mL (final concentration) in terms of Escherichia coli. […] A solution to which the peptides were not added was considered as a negative control, and a solution to which tobramycin (TOB) was added was considered as a positive control. […] Relative values were calculated by comparison with the negative control, and these values were regarded as the viability. […] ATP (%) of the antibacterial activity was measured in the same manner as mentioned above, and the “minimum inhibitory concentration (MIC)” was measured as follows. MIC is the lowest concentration of an agent that may inhibit the growth of a bacterium. MIC is used as a parameter for the efficacy of an antibacterial agent, for the strength of bacterial sensitivity, or the like. The bacteria can grow (proliferate) when the concentration is not higher than MIC, and cannot grow when the concentration is higher than MIC. […] (CLSI), but, in this Example, its measurement was carried out by a broth microdilution method in accordance with “M100-S17/M7-A7” (Performance Standards for Antimicrobial Susceptibility Testing; Seventeenth Informational Supplement, Vol. 27 No. 1) published by CLSI on January, 2007. That is, sensitivity test of agents was carried out using a microtiter plate or test tubes. With respect to each strain, Escherichia coli: ATCC 25922 (Escherichia coli ATCC 25922), Pseudomonas aeruginosa: ATCC 27853 (Pseudomonas aeruginosa ATCC 27853), Staphylococcus aureus: ATCC29213 (Staphylococcus aureus ATCC29213), Klebsiella pneumoniae: JCM 1662 (Klebsiella pneumoniae JCM 1662), enterobacteria (1): JCM 1232 (Enterobacter cloacae JCM 1232), enterobacteria (2): JCM 1235 (Enterobacter aerogenes JCM 1235), and Staphylococcus epidermidis: JCM 2414 (Staphylococcus epidermidis JCM 2414), were used. […] As the concentrations of the agents in ATP assay, the concentrations as described in the Tables were used.

## NC[C@H]1O[C@H](O[C@H]2[C@H](O)[C@@H](O[C@H]3O[C@H](CO)[C@@H](O)[C@H](N)[C@H]3O)[C@H](N)C[C@@H]2N)[C@H](N)C[C@@H]1O [TOB, tobramycin, reference compound]
[1]
  ATP (%) mean, Enterobacteria (2): 0.5%
[2]
  ATP (%) mean, Escherichia coli: 3.8%
[3]
  ATP (%) mean, Klebsiella pneumoniae: 3.8%
[4]
  ATP (%) mean, Staphylococcus epidermidis: 4.2%
[5]
  ATP (%) mean, Enterobacteria (1): 3.0%
